Experimental data published in patent publication US9499519B2, “Fused pyrimidine compounds and use thereof” (Medivation Technologies, Inc., priority 2012, dated 2016).

System: Akt phosphorylation induced by IGF-1R
Test: Western blot analysis of Akt phosphorylation induced by IGF-1 in HT-29 cells
Type: cell-based, Human
Conditions: for Levels of phosphorylated AKT in treated cells (pAKT/actin): HT-29 cells, IGF-1; for p-AKT relative to levels with 0.1 nM compound: Table B2 lower part; for Normalized phosphorylated AKT (relative to actin) levels relative to 0.1 nM compound treatment: Table B2 upper part
Experimental: Inhibition of Akt phosphorylation induced by IGF-1R was studied by western blot analysis. Human colon carcinoma HT-29 cells were seeded at a density of 8×10^4 cells/well in a 24-well plate and grown in DME/F12 media containing 10% FBS for 24 h. The cells were then depleted of serum by incubation in DME/F12 media lacking FBS for 24 h. […] […] Lysed cells were centrifuged at 13,000 rpm for 15 min and the protein concentration soluble fraction (supernatant) of each sample was determined using a BCA protein assay (Pierce).

O=C(Nc1ccc(F)nc1)C1CCCN1c1nc2c(c(Nc3cc(C4CC4)[nH]n3)n1)CCC2 (racemic) [Compound 2, 1-(4-(5-cyclopropyl-1H-pyrazol-3-ylamino)-6,7-dihydro-5H-cyclopenta[d]pyrimidin-2-yl)-N-(6-fluoropyridin-3-yl)pyrrolidine-2-carboxamide]
Levels of phosphorylated AKT in treated cells (pAKT/actin) (0.1 nM compound): 1.04 | p-AKT relative to levels with 0.1 nM compound (0.1 nM): 1.0 | Normalized phosphorylated AKT (relative to actin) levels relative to 0.1 nM compound treatment (0.1 nM): 1.0 | Levels of phosphorylated AKT in treated cells (pAKT/actin) (1 nM compound): 0.91 | p-AKT relative to levels with 0.1 nM compound (1 nM): 0.9 | Normalized phosphorylated AKT (relative to actin) levels relative to 0.1 nM compound treatment (1 nM): 0.9 | Levels of phosphorylated AKT in treated cells (pAKT/actin) (10 nM compound): 0.07 | p-AKT relative to levels with 0.1 nM compound (10 nM): 0.1 | Normalized phosphorylated AKT (relative to actin) levels relative to 0.1 nM compound treatment (10 nM): 0.1 | Levels of phosphorylated AKT in treated cells (pAKT/actin) (100 nM compound): 0.00 | p-AKT relative to levels with 0.1 nM compound (100 nM): 0.0 | Normalized phosphorylated AKT (relative to actin) levels relative to 0.1 nM compound treatment (100 nM): 0.0

O=C(Nc1ccc(F)nc1)C1CCCN1c1nc2c(c(Nc3cc(C4CCCC4)[nH]n3)n1)CCC2 (racemic) [Compound 4, 1-(4-(3-cyclopentyl-1H-pyrazol-5-ylamino)-6,7-dihydro-5H-cyclopenta[d]pyrimidin-2-yl)-N-(6-fluoropyridin-3-yl)pyrrolidine-2-carboxamide]
Levels of phosphorylated AKT in treated cells (pAKT/actin) (0.1 nM compound): 1.92 | p-AKT relative to levels with 0.1 nM compound (0.1 nM): 1.0 | Normalized phosphorylated AKT (relative to actin) levels relative to 0.1 nM compound treatment (0.1 nM): 1.0 | Levels of phosphorylated AKT in treated cells (pAKT/actin) (1 nM compound): 1.59 | p-AKT relative to levels with 0.1 nM compound (1 nM): 0.8 | Normalized phosphorylated AKT (relative to actin) levels relative to 0.1 nM compound treatment (1 nM): 0.8 | Levels of phosphorylated AKT in treated cells (pAKT/actin) (10 nM compound): 1.01 | p-AKT relative to levels with 0.1 nM compound (10 nM): 0.5 | Normalized phosphorylated AKT (relative to actin) levels relative to 0.1 nM compound treatment (10 nM): 0.5 | Levels of phosphorylated AKT in treated cells (pAKT/actin) (100 nM compound): 0.06 | p-AKT relative to levels with 0.1 nM compound (100 nM): 0.0 | Normalized phosphorylated AKT (relative to actin) levels relative to 0.1 nM compound treatment (100 nM): 0.0

O=C(Nc1cnccn1)C1CCCN1c1nc2c(c(Nc3cc(C4CC4)[nH]n3)n1)CCC2 (racemic) [Compound 6, 1-(4-(3-cyclopropyl-1H-pyrazol-5-ylamino)-6,7-dihydro-5H-cyclopenta[d]pyrimidin-2-yl)-N-(pyrazin-2-yl)pyrrolidine-2-carboxamide]
Levels of phosphorylated AKT in treated cells (pAKT/actin) (0.1 nM compound): 1.54 | p-AKT relative to levels with 0.1 nM compound (0.1 nM): 1.0 | Normalized phosphorylated AKT (relative to actin) levels relative to 0.1 nM compound treatment (0.1 nM): 1.0 | Levels of phosphorylated AKT in treated cells (pAKT/actin) (1 nM compound): 0.22 | p-AKT relative to levels with 0.1 nM compound (1 nM): 0.1 | Normalized phosphorylated AKT (relative to actin) levels relative to 0.1 nM compound treatment (1 nM): 0.1 | Levels of phosphorylated AKT in treated cells (pAKT/actin) (10 nM compound): 0.01 | p-AKT relative to levels with 0.1 nM compound (10 nM): 0.0 | Normalized phosphorylated AKT (relative to actin) levels relative to 0.1 nM compound treatment (10 nM): 0.0 | Levels of phosphorylated AKT in treated cells (pAKT/actin) (100 nM compound): 0.01 | p-AKT relative to levels with 0.1 nM compound (100 nM): 0.0 | Normalized phosphorylated AKT (relative to actin) levels relative to 0.1 nM compound treatment (100 nM): 0.0

O=C(Nc1cncnc1)C1CCCN1c1nc2c(c(Nc3cc(C4CC4)[nH]n3)n1)CCC2 (racemic) [Compound 7, 1-(4-(3-cyclopropyl-1H-pyrazol-5-ylamino)-6,7-dihydro-5H-cyclopenta[d]pyrimidin-2-yl)-N-(pyrimidin-5-yl)pyrrolidine-2-carboxamide]
Levels of phosphorylated AKT in treated cells (pAKT/actin) (0.1 nM compound): 1.45 | p-AKT relative to levels with 0.1 nM compound (0.1 nM): 1.0 | Normalized phosphorylated AKT (relative to actin) levels relative to 0.1 nM compound treatment (0.1 nM): 1.0 | Levels of phosphorylated AKT in treated cells (pAKT/actin) (1 nM compound): 2.08 | p-AKT relative to levels with 0.1 nM compound (1 nM): 1.4 | Normalized phosphorylated AKT (relative to actin) levels relative to 0.1 nM compound treatment (1 nM): 1.4 | Levels of phosphorylated AKT in treated cells (pAKT/actin) (10 nM compound): 1.09 | p-AKT relative to levels with 0.1 nM compound (10 nM): 0.7 | Normalized phosphorylated AKT (relative to actin) levels relative to 0.1 nM compound treatment (10 nM): 0.7 | Levels of phosphorylated AKT in treated cells (pAKT/actin) (100 nM compound): 1.20 | p-AKT relative to levels with 0.1 nM compound (100 nM): 0.8 | Normalized phosphorylated AKT (relative to actin) levels relative to 0.1 nM compound treatment (100 nM): 0.8

O=C(Nc1ccc(F)nc1)C1CCCCN1c1nc2c(c(Nc3cc(C4CC4)[nH]n3)n1)CCC2 (racemic) [Compound 9, 1-(4-(3-cyclopropyl-1H-pyrazol-5-ylamino)-6,7-dihydro-5H-cyclopenta[d]pyrimidin-2-yl)-N-(6-fluoropyridin-3-yl)piperidine-2-carboxamide]
Levels of phosphorylated AKT in treated cells (pAKT/actin) (0.1 nM compound): 0.67 | p-AKT relative to levels with 0.1 nM compound (0.1 nM): 1.0 | Normalized phosphorylated AKT (relative to actin) levels relative to 0.1 nM compound treatment (0.1 nM): 1.0 | Levels of phosphorylated AKT in treated cells (pAKT/actin) (1 nM compound): 0.71 | p-AKT relative to levels with 0.1 nM compound (1 nM): 1.1 | Normalized phosphorylated AKT (relative to actin) levels relative to 0.1 nM compound treatment (1 nM): 1.1 | Levels of phosphorylated AKT in treated cells (pAKT/actin) (10 nM compound): 0.07 | p-AKT relative to levels with 0.1 nM compound (10 nM): 0.1 | Normalized phosphorylated AKT (relative to actin) levels relative to 0.1 nM compound treatment (10 nM): 0.1 | Levels of phosphorylated AKT in treated cells (pAKT/actin) (100 nM compound): 0.00 | p-AKT relative to levels with 0.1 nM compound (100 nM): 0.0 | Normalized phosphorylated AKT (relative to actin) levels relative to 0.1 nM compound treatment (100 nM): 0.0

O=C(Nc1cccnc1)C1CCCN1c1nc2c(c(Nc3cc(C4CC4)[nH]n3)n1)CCC2 (single isomer, unassigned) [Compound 3a, 1-(4-(5-cyclopropyl-1H-pyrazol-3-ylamino)-6,7-dihydro-5H-cyclopenta[d]pyrimidin-2-yl)-N-(pyridin-3-yl)pyrrolidine-2-carboxamide]
Levels of phosphorylated AKT in treated cells (pAKT/actin) (0.1 nM compound): 2.64 | p-AKT relative to levels with 0.1 nM compound (0.1 nM): 1.0 | Normalized phosphorylated AKT (relative to actin) levels relative to 0.1 nM compound treatment (0.1 nM): 1.0 | Levels of phosphorylated AKT in treated cells (pAKT/actin) (1 nM compound): 1.68 | p-AKT relative to levels with 0.1 nM compound (1 nM): 0.6 | Normalized phosphorylated AKT (relative to actin) levels relative to 0.1 nM compound treatment (1 nM): 0.6 | Levels of phosphorylated AKT in treated cells (pAKT/actin) (10 nM compound): 1.86 | p-AKT relative to levels with 0.1 nM compound (10 nM): 0.7 | Normalized phosphorylated AKT (relative to actin) levels relative to 0.1 nM compound treatment (10 nM): 0.7 | Levels of phosphorylated AKT in treated cells (pAKT/actin) (100 nM compound): 2.19 | p-AKT relative to levels with 0.1 nM compound (100 nM): 0.8 | Normalized phosphorylated AKT (relative to actin) levels relative to 0.1 nM compound treatment (100 nM): 0.8

O=C(Nc1cccnc1)C1CCCN1c1nc2c(c(Nc3cc(C4CC4)[nH]n3)n1)CCC2 (single isomer, unassigned) [Compound 3b, 1-(4-(5-cyclopropyl-1H-pyrazol-3-ylamino)-6,7-dihydro-5H-cyclopenta[d]pyrimidin-2-yl)-N-(pyridin-3-yl)pyrrolidine-2-carboxamide]
Levels of phosphorylated AKT in treated cells (pAKT/actin) (0.1 nM compound): 2.25 | p-AKT relative to levels with 0.1 nM compound (0.1 nM): 1.0 | Normalized phosphorylated AKT (relative to actin) levels relative to 0.1 nM compound treatment (0.1 nM): 1.0 | Levels of phosphorylated AKT in treated cells (pAKT/actin) (1 nM compound): 1.70 | p-AKT relative to levels with 0.1 nM compound (1 nM): 0.8 | Normalized phosphorylated AKT (relative to actin) levels relative to 0.1 nM compound treatment (1 nM): 0.8 | Levels of phosphorylated AKT in treated cells (pAKT/actin) (10 nM compound): 0.57 | p-AKT relative to levels with 0.1 nM compound (10 nM): 0.3 | Normalized phosphorylated AKT (relative to actin) levels relative to 0.1 nM compound treatment (10 nM): 0.3 | Levels of phosphorylated AKT in treated cells (pAKT/actin) (100 nM compound): 0.02 | p-AKT relative to levels with 0.1 nM compound (100 nM): 0.0 | Normalized phosphorylated AKT (relative to actin) levels relative to 0.1 nM compound treatment (100 nM): 0.0

O=C(Nc1ccc(F)nc1)C1CCCCN1c1nc2c(c(Nc3cc(C4CC4)[nH]n3)n1)CCC2 (single isomer, unassigned) [Compound 9a, 1-(4-(3-cyclopropyl-1H-pyrazol-5-ylamino)-6,7-dihydro-5H-cyclopenta[d]pyrimidin-2-yl)-N-(6-fluoropyridin-3-yl)piperidine-2-carboxamide]
Levels of phosphorylated AKT in treated cells (pAKT/actin) (0.1 nM compound): 1.24 | p-AKT relative to levels with 0.1 nM compound (0.1 nM): 1.0 | Normalized phosphorylated AKT (relative to actin) levels relative to 0.1 nM compound treatment (0.1 nM): 1.0 | Levels of phosphorylated AKT in treated cells (pAKT/actin) (1 nM compound): 1.26 | p-AKT relative to levels with 0.1 nM compound (1 nM): 1.0 | Normalized phosphorylated AKT (relative to actin) levels relative to 0.1 nM compound treatment (1 nM): 1.0 | Levels of phosphorylated AKT in treated cells (pAKT/actin) (10 nM compound): 0.53 | p-AKT relative to levels with 0.1 nM compound (10 nM): 0.4 | Normalized phosphorylated AKT (relative to actin) levels relative to 0.1 nM compound treatment (10 nM): 0.4 | Levels of phosphorylated AKT in treated cells (pAKT/actin) (100 nM compound): 0.02 | p-AKT relative to levels with 0.1 nM compound (100 nM): 0.0 | Normalized phosphorylated AKT (relative to actin) levels relative to 0.1 nM compound treatment (100 nM): 0.0

O=C(Nc1ccc(F)nc1)C1CCCCN1c1nc2c(c(Nc3cc(C4CC4)[nH]n3)n1)CCC2 (single isomer, unassigned) [Compound 9b, 1-(4-(3-cyclopropyl-1H-pyrazol-5-ylamino)-6,7-dihydro-5H-cyclopenta[d]pyrimidin-2-yl)-N-(6-fluoropyridin-3-yl)piperidine-2-carboxamide]
Levels of phosphorylated AKT in treated cells (pAKT/actin) (0.1 nM compound): 1.46 | p-AKT relative to levels with 0.1 nM compound (0.1 nM): 1.0 | Normalized phosphorylated AKT (relative to actin) levels relative to 0.1 nM compound treatment (0.1 nM): 1.0 | Levels of phosphorylated AKT in treated cells (pAKT/actin) (1 nM compound): 1.55 | p-AKT relative to levels with 0.1 nM compound (1 nM): 1.1 | Normalized phosphorylated AKT (relative to actin) levels relative to 0.1 nM compound treatment (1 nM): 1.1 | Levels of phosphorylated AKT in treated cells (pAKT/actin) (10 nM compound): 1.18 | p-AKT relative to levels with 0.1 nM compound (10 nM): 0.8 | Normalized phosphorylated AKT (relative to actin) levels relative to 0.1 nM compound treatment (10 nM): 0.8 | Levels of phosphorylated AKT in treated cells (pAKT/actin) (100 nM compound): 0.78 | p-AKT relative to levels with 0.1 nM compound (100 nM): 0.5 | Normalized phosphorylated AKT (relative to actin) levels relative to 0.1 nM compound treatment (100 nM): 0.5
